Assay results: patent US7939563B2, “Remedy for hypertension” (Kao Corporation, priority 2001, dated 2011)

Key:
[1] = test system: spontaneously hypertensive male rats (SHR); experiment: Measurement of an antihypertensive effect: oral administration, systolic blood pressure of the caudal artery; assay type: in vivo, rat; settings: 50 mg/Kg oral
Method: After each of 15 week-old, spontaneously hypertensive male rats (“SHR”) was accustomed to sphygmomanometric operation by preliminarily measuring its blood pressure for 7 successive days using a commercially available noninvasive sphygmomanometer for rats (manufactured by Softlon Co., Ltd.), the evaluation test was started. The rats were all bred under conditions (in a breeding room in a rat region) at a room temperature of 25±1° C., humidity of 55±10% RH and illumination for 12 hours (from 7:00 am to 7:00 pm).
In the test plot (Comparative Example), a solution of ferulic acid (50 mg/kg as a dose) in physiological saline was employed. In Test plot 2, Test plot 3, Test plot 4, Test plot 5 and Test plot 6, a solution of chlorogenic acid (50 mg/kg as a dosage) in physiological saline, oryzanol (50 mg/kg as a dosage), curcumin (50 mg/kg as a dosage), phenylethyl caffeate (50 mg/kg as a dosage) and rosmarinic acid (50 mg/kg as a dosage) were used, respectively. In each test plot, physiological saline was employed as a control. Each of the samples was orally administered.
SHRs were fasted overnight and divided into groups, each consisting of 5 rats. Systolic blood pressures of the caudal artery were measured prior to administration, and several times during 30 minutes to 24 hours after administration
The test results thus obtained were expressed by the mean value (%) and […] (SE) of the changing ratio (%) in systolic blood pressure.
A lowering ratio of the systolic blood pressure measured during 30 minutes to 24 hours each after administration relative to the systolic blood pressure prior to administration is shown in Table 1.

[2] = test system: spontaneously hypertensive male rats (SHR); experiment: Identification of an antihypertensive component: intravenous administration, systolic blood pressure of the carotid artery; assay type: in vivo, rat; settings: anesthetized 15 week-old SHR, 5 μg mol/kg in physiological saline, intravenous via femoral vein catheter
Method: Its electrocardiograph was recorded by an electrocardiogram. A sample was injected to the femoral vein through a catheter. After the rats were accustomed sufficiently to the sphygmomanometric operation, the evaluation test was started. The rats were all bred under conditions (in a breeding room in a rat region) at a room temperature of 25±1° C., humidity of 55±10% RH and illumination for 12 hours (from 7:00 am to 7:00 pm). In the control plot, physiological saline was employed. […] Through a catheter, the sample was intravenously administered and while administration, systolic blood pressures of the carotid artery were measured with the passage of time.

[3] = Blood levels after 6 weeks of a beverage mixture containing an extract of raw coffee beans, liquid chromatography; assay type: in vivo; settings: human, plasma, oral; read-out: blood level 24 hours after administration of chlorogenic acid
Method: The blood levels of chlorogenic acid, caffeic acid and ferulic acid were measured using liquid chromatography.

[4] = Blood levels of chlorogenic acid, caffeic acid and ferulic acid after oral chlorogenic acid in SHR; assay type: in vivo, rat; set-up: unit not given here; settings: 200 mg/kg chlorogenic acid oral once
Method: To the SHR, 200 mg/kg of chlorogenic acid was orally administered once.
SHRs were fasted overnight and then divided into groups, each consisting of 5 rats.

[5] = Blood level time course of ferulic acid after administration; assay type: in vivo
[6] = time 0 (prior to administration)

| Compound | changing ratio in systolic blood pressure (mean) [1, 6] | changing ratio in systolic blood pressure (mean) ([1]; time 6 after administration) | changing ratio in systolic blood pressure (mean) ([1]; time 12 after administration) | changing ratio in systolic blood pressure (mean) ([1]; time 24 after administration) | fluctuation in systolic blood pressure of the carotid artery [2] | blood level after the administration of chlorogenic acid [4, 6] | blood level after the administration of chlorogenic acid ([4]; time 3) | blood level after the administration of chlorogenic acid ([4]; time 6) | blood level after the administration of chlorogenic acid ([4]; time 9) | blood level after the administration of chlorogenic acid ([4]; time 12) | blood level after the administration of chlorogenic acid ([4]; time 24) | also measured |
| --- | --- | --- | --- | --- | --- | --- | --- | --- | --- | --- | --- | --- |
| O=C(/C=C/c1ccc(O)c(O)c1)O[C@H](Cc1ccc(O)c(O)c1)C(=O)O [rosemaric acid, rosmarinic acid] | 0% | −6.4% | 0.9% | 2.2% |  |  |  |  |  |  |  |  |
| O=C(O)/C=C/c1ccc(O)c(O)c1 [caffeic acid] |  |  |  |  | Fluctuations in the blood pressure was not recognized | 0 | 0.07 | 0.179 | 0.166 | 0.05 | 0 | concentration at 24 h [3]: 95.4 ng/mL |
| oryzanol | 0% |  |  |  |  |  |  |  |  |  |  | changing ratio in systolic blood pressure (mean) ([1]; time 1 after administration): −15.2%; changing ratio in systolic blood pressure (mean) ([1]; time 2 after administration): −12.8%; changing ratio in systolic blood pressure (mean) ([1]; time 4 after administration): −13.8% |
| COc1cc(/C=C/C(=O)O)ccc1O [ferulic acid] | 0% | −3.2% |  |  | lowering in the blood pressure was recognized | 0 | 0.074 | 0.154 | 0.174 | 0.145 | 0 | time after which metabolism and excretion are completed [5]: about 4 hours; time at which the blood level reaches the maximum [5]: about 2 hours; concentration at 24 h [3]: 104 ng/mL; changing ratio in systolic blood pressure (mean) ([1]; time 0.5 after administration): −9.5%; changing ratio in systolic blood pressure (mean) ([1]; time 1 after administration): −10.3%; changing ratio in systolic blood pressure (mean) ([1]; time 2 after administration): −6.8%; changing ratio in systolic blood pressure (mean) ([1]; time 4 after administration): −7.9% |
| COc1cc(/C=C/C(=O)CC(=O)/C=C/c2ccc(O)c(OC)c2)ccc1O [curcumin] | 0% | −15.2% | −3.5% | −5.3% |  |  |  |  |  |  |  |  |
| O=C(O)[C@]1(O)C[C@@H](O)[C@@H](O)[C@H](O)C1 [quinic acid] |  |  |  |  | Fluctuations in the blood pressure was not recognized |  |  |  |  |  |  |  |
| O=C(/C=C/c1ccc(O)c(O)c1)O[C@H]1[C@H](O)C[C@](O)(C(=O)O)C[C@H]1O [4-chlorogenic acid, 4-caffeoylquinic acid] | 0% | −8.5% | −9.1% | −11.0% |  |  |  |  |  |  |  |  |
| O=C(/C=C/c1ccc(O)c(O)c1)OCCc1ccccc1 [phenylethyl caffeic acid, phenylethyl caffeate] | 0% | −13.7% | −1.3% | −0.7% |  |  |  |  |  |  |  |  |
| O=C(/C=C/c1ccc(O)c(O)c1)O[C@@H]1C[C@](O)(C(=O)O)C[C@@H](O)[C@H]1O [5-chlorogenic acid, 5-caffeoylquinic acid] |  |  |  |  |  | 0 | 0 | 0 | 0 | 0 | 0 |  |
